24 compounds from ChEMBL document CHEMBL1149707, “Structure-activity relationship studies of carboxamido-biaryl ethers as opioid receptor antagonists (OpRAs). Part 1” (Bioorg Med Chem Lett, 2007) can be followed below.

The target in assay [1] is T1, Mu-type opioid receptor (Homo sapiens, UniProt P35372). Kind of assay: Displacement of [3H]diprenorphine from human mu opioid receptor expressed in CHO cells in presence of high sodium by SPA. The format is cell-based.
In assay [2] the target is T2, Delta-type opioid receptor (Homo sapiens, UniProt P41143). The assay is described as follows: Displacement of [3H]bremazocine from human delta opioid receptor expressed in CHO cells in presence of high sodium by SPA. The format is cell-based.
T2 sequence (P41143 whole entry): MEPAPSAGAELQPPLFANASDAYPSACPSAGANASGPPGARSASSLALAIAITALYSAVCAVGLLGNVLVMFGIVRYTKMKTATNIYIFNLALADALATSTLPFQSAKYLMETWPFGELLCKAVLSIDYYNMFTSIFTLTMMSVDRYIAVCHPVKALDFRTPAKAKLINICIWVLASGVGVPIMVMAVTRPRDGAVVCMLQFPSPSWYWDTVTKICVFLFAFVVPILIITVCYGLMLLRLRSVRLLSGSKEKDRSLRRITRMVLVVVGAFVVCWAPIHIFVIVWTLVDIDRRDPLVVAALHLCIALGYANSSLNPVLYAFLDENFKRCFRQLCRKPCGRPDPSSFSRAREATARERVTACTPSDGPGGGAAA
Assay [3] deals with T3, Kappa-type opioid receptor (Homo sapiens, UniProt P41145). Kind of assay: Displacement of [3H]diprenorphine from human kappa opioid receptor expressed in CHO cells in presence of high sodium by SPA. In kind it is cell-based.
T3 sequence (P41145 whole entry): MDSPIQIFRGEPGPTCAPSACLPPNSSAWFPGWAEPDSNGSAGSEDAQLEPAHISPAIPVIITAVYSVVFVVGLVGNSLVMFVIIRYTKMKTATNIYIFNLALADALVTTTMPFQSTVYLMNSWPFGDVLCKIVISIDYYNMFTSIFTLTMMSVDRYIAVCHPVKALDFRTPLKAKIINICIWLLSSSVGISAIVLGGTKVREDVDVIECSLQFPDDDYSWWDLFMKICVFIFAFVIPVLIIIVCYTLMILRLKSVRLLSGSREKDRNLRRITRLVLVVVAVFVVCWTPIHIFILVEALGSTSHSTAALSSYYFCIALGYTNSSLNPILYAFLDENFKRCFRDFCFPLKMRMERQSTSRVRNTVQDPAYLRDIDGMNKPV
For assay [4], the target named is T1, Mu-type opioid receptor. The assay is described as follows: Antagonist activity at human mu opioid receptor expressed in CHO cells by [35S]GTP-gamma-S binding assay. In kind it is functional, cell-based.
Assay [5] has as its target T2, Delta-type opioid receptor. The assay is described as follows: Antagonist activity at human delta opioid receptor expressed in CHO cells by [35S]GTP-gamma-S binding assay. In kind it is functional, cell-based.
For assay [6], the target named is T3, Kappa-type opioid receptor. The assay is described as follows: Antagonist activity at human kappa opioid receptor expressed in CHO cells by [35S]GTP-gamma-S binding assay. In kind it is functional, cell-based.

T1 sequence (P35372 whole entry): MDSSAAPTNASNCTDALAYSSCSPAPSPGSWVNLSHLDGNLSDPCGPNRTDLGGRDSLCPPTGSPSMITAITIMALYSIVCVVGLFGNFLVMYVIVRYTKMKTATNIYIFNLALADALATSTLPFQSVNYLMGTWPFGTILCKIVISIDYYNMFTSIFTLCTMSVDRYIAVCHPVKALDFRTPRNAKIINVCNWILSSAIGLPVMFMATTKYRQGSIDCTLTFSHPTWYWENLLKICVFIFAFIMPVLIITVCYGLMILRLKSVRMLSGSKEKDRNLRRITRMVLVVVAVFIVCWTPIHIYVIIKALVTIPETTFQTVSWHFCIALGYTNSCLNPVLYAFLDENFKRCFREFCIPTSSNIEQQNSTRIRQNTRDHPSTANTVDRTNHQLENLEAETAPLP

As for `NC(=O)c1cccc(Oc2ccc(CCNCc3ccccc3)cc2)n1`, the inhibition constant (Ki) on Mu-type opioid receptor [1] is 643 nM; in assay [2], > 5000 nM; in assay [3] it was > 5 µM.
Turning to `NC(=O)c1ccc(Oc2ccc(CCNCCc3ccccc3)cc2)nc1`, the Ki on Mu-type opioid receptor [4] was determined as 16.6 nM; in assay [6] it was 23.3 nM. Also, the Kb in assay [5] amounted to 128 nM.
Taken in the same sequence, the figures for `NC(=O)c1ccc(Oc2ccc(CCNCCCc3ccccc3)cc2)nc1` were 18.5 nM, 24.1 nM and 212 nM.
Taken in the same sequence, the figures for `NC(=O)c1ccc(Oc2ccc(CCCNCc3ccccc3)cc2)nc1` were 22.3 nM, 45.8 nM and 496 nM.
For the compound `NC(=O)c1ccc(Oc2ccc(CNCCc3ccccc3)cc2)cn1`, the Ki came out at 0.44 nM at Mu-type opioid receptor [4]; 1.77 nM at Mu-type opioid receptor [1]; 9.6 nM in assay [6]; 8.54 nM in assay [2]; 0.0693 µM in assay [3]. The compound also gave a Kb in assay [5] of 2.86 nM.
Consider `NC(=O)c1ccnc(Oc2ccc(CCNCc3ccccc3)cc2)c1`, for which the Ki at Mu-type opioid receptor [1] is > 2500 nM; in assay [2], > 5000 nM; in assay [3], > 5 µM.
On the same counts, the results for `NC(=O)c1cccnc1Oc1ccc(CCNCc2ccccc2)cc1` are > 2500 nM, > 5000 nM and > 5 µM.
Taken in the same sequence, the figures for `N#Cc1ccc(Oc2ccc(CCNCc3ccccc3)cc2)nc1` were 1080 nM, > 5000 nM and > 5 µM.
In the case of `NCc1ccc(Oc2ccc(CCNCc3ccccc3)cc2)nc1`, the Ki at Mu-type opioid receptor [1] was > 2500 nM; in assay [2], > 5000 nM; in assay [3], > 5 µM.
On the same counts, the results for `O=C(O)c1ccc(Oc2ccc(CCNCc3ccccc3)cc2)nc1` are > 2500 nM, > 5000 nM and > 5 µM.
For the compound `NC(=O)c1ccc(Oc2ccc(CCNCc3ccccc3)cc2)nc1`, the Ki was determined as 2.25 nM on Mu-type opioid receptor [4]; 7.44 nM on Mu-type opioid receptor [1]; 18.4 nM in assay [6]; 70.2 nM in assay [2]; 0.136 µM in assay [3]. The same compound displayed a Kb in assay [5] of 23.1 nM.
For the compound `N=C(N)c1ccc(Oc2ccc(CNCCc3ccccc3)cc2)nc1`, the Ki on Mu-type opioid receptor [1] was found to be 20.6 nM; in assay [2], 215 nM; in assay [3], 1.15 µM.
On the same counts, the results for `NS(=O)(=O)c1ccc(Oc2ccc(CCNCc3ccccc3)cc2)cc1` are > 2500 nM, > 5000 nM and > 5 µM.
Regarding `CNC(=N)c1ccc(Oc2ccc(CNCCc3ccccc3)cc2)nc1`, the Ki was 235 nM on Mu-type opioid receptor [1], 3460 nM in assay [2] and > 5 µM in assay [3].
On the same counts, the results for `CCNC(=O)c1ccc(Oc2ccc(CNCCc3ccccc3)cc2)nc1` are 57.1 nM, 674 nM and 2.81 µM.
With `CC(C)NC(=O)c1ccc(Oc2ccc(CNCCc3ccccc3)cc2)nc1`, the Ki on Mu-type opioid receptor [1] is 52.3 nM; in assay [2], 2410 nM; in assay [3] it was > 5 µM.
As for `NC(=O)c1ccc(Oc2ccc(NCCCc3ccccc3)cc2)nc1`, the Ki (on Mu-type opioid receptor [4]; in assay [6]) was > 1000 nM each time. The Kb in assay [5] was > 1000 nM.
`NC(=O)c1ccc(Oc2ccc(CNCc3ccccc3)cc2)nc1`: the Ki at Mu-type opioid receptor [4] was determined as 4.09 nM; in assay [6], 2.47 nM. In addition, the Kb in assay [5] stood at 54.1 nM.
As to `NC(=O)c1ccc(Oc2ccc(CNCCc3ccccc3)cc2)cc1`, the values for the Ki in assay [6] and in assay [3] were 1.22 nM and 0.015 µM, respectively.
`NC(=O)c1ccc(Oc2ccc(CNCCc3ccccc3)cc2)nc1`: the Ki at Mu-type opioid receptor [4] worked out at 0.07 nM; at Mu-type opioid receptor [1], 0.17 nM.
As to `C[C@H]1CN(CC[C@H](O)C2CCCCC2)CC[C@@]1(C)c1cccc(O)c1`, in assay [5], the antagonist dissociation constant (Kb) stood at 1.19 nM. Besides, the Ki in assay [2] was determined as 4.82 nM.
`CNC(=O)c1ccc(Oc2ccc(CNCCc3ccccc3)cc2)nc1`: the Ki at Mu-type opioid receptor [1] is 52.3 nM; in assay [2], 718 nM; in assay [3] it was > 5 µM.
Taken in the same sequence, the figures for `O=C(c1ccc(Oc2ccc(CNCCc3ccccc3)cc2)nc1)N1CCCCC1` were 389 nM, > 5000 nM and > 5 µM.
Regarding `NC(=O)c1ccc(Oc2ccc(CCCNc3ccccc3)cc2)nc1`, the Ki (at Mu-type opioid receptor [4]; in assay [6]) was > 1000 nM in each case. In assay [5], the Kb is > 1000 nM.
